Measured values published in patent EP0964864B1, “PYRIDO 2,3-D PYRIMIDINES AND 4-AMINOPYRIMIDINES AS INHIBITORS OF CELLULAR PROLIFERATION” (priority 1997, dated 1998).

What was measured:
[1] = target: FGF-1 (flg) receptor tyrosine kinase; experiment: FGF receptor tyrosine kinase assay; type: biochemical, human
[2] = target: PDGF-β receptor tyrosine kinase; experiment: PDGF receptor tyrosine kinase assay; type: biochemical, mouse

IC50 [1]: 4.5 µM
IC50 [2]: 3.7 µM
SMILES: CCNc1nc(Nc2ccccc2)ncc1C=CC(=O)OCC [Example 17, Ethyl 3-(4-Ethylamino-2-phenylamino-pyrimidin-5-yl)acrylate]
